Laboratory results: PMC4445002, “Efficient inhibition of tumor angiogenesis and growth by a synthetic peptide blocking S100A4-methionine aminopeptidase 2 interaction” (Molecular Therapy. Methods & Clinical Development, 2015)

Tested on: angiogenesis-related genes in MSS31 cells
Assay: Expression of angiogenesis-related genes by qRT-PCR
Assay type: cell-based, mouse
Conditions: atelocollagen complex, retn, fgf18, aqp1, map3k5, thy1, foxo6, hs6st1, cdkn1a, thbs1, spry4
Experimental: Therefore, an alternative action mechanism of the NBD peptide would be the modulation of the expression of these angiogenesis-related genes.
Caspase3/7 assays was performed with Apo-ONE Caspase-3/7 Assay
Reagent (Promega). No significant changes are observed.
F i g . […]
PC-3M-Luc cells were treated with atelocollagen alone or the NBD peptide/atelocollagen complex in vitro, and their growth rate was monitored.
The values represent cell growth rate relative to that of control cells that is […]
MSS31 cells were incubated with the peptide/atelocollagen complexes.
Isolation of total RNA and subsequent qRT-PCR analysis were carried out as described previously (30). The GAPDH gene was used as an internal control.
(a) Proangiogenic genes in NBD and CBD peptides-treated cells. (b)
Antiangiogenic genes in NBD and CBD peptides-treated cells.

NBD: N-terminal 39 amino acid sequence of SBD, from Arg170 to Ileu208; corresponding to MetAP2 (170–208) (REAAEAHRQVRKYVMSWIKPGMTMIEICEKLEDCSRKLI)
expression of angiogenesis-related genes: could not detect any alteration of the expression of these genes
